Assay [1] has as its target T1, bombesin/GRP receptor (Mus musculus, UniProt P21729).
T1 construct: Pancreata from mice were pooled and chopped at 350 µm with a tissue chopper; from tissue; host or cells: chopped mouse pancreas
As to the kind of experiment: Competition at the receptor for iodinated GRP (binding to murine pancreatic membranes). The arrangement: species or system mice. On the procedure:
The pancreata from one or more mice were pooled, minced, and homogenized in 50 mM HEPES (pH 7.4) containing 120 mM NaCl and 5 mM KCl at 4°C and centrifuged at 37,500 X g for 15 minutes. The pellet was resuspended in 50 mM HEPES (pH 7.4) containing 10 mM EDTA and 300 mM KCl and incubated for 30 minutes at 4°C. The suspension was centrifuged as above and the pellet was washed two times in 50 mM HEPES (pH 7.4) containing protease inhibitors (10 µM phenylmethylsulfonyl fluoride, 1 µM thiorphan, 40 µg/ml bacitracin, 10mM iodoacetimide and 4 µg/ml leupeptin), and again centrifuged. The tissue was then resuspended in incubation buffer (1ml per 4 mg pancreas) and incubated for 15 minutes at room temperature, then 250 µl was added to each assay tube to commence the assay. […] The assay was allowed to proceed to equilibrium for 90 minutes at room temperature. After this time, the contents of each tube was rapidly filtered over Whatman GF/B filters presoaked in 0.1% polyethyleneimine and the filters were rapidly washed three times with ice-cold 50 mM HEPES (pH 7.4). Filter-bound radioactivity was quantitated in a gamma counter. […] Affinity and maximal binding were calculated with Ligand (Biosoft, Cambridge, UK) (Figure 1 and Figure 2).
Binding was assayed in triplicate using 0.1 […] and the indicated concentrations of peptide. The abscissa (x-axis) logarithmically indicates the concentration of agonists or antagonist of the GRP receptor.

The target in assay [2] is T1, bombesin/GRP receptor. Description: Phosphatidylinositol (PI) turnover in chopped murine pancreas, alone (agonism) or before GRP (antagonism). The assay is classed as cell-based, mice. The arrangement: key to PI Turnover Agonist / PI Turnover Antag.: "+" indicates activity; "-" indicates no activity. The following applies: for PI Turnover Antag.: ability to block GRP-stimulated PI turnover, pretreatment with 1 uM potential antagonist; for PI Turnover Antag. / PI Turnover Agonist: murine pancreas; for PI Turnover Agonist: ability to stimulate PI turnover. On the procedure: Pancreata from mice were pooled and chopped at 350 µm with a tissue chopper. The chopped tissue was washed twice with Krebs-Hepes buffer, then incubated for 30 minutes in 37°C Krebs-Hepes buffer with fresh buffer after 15 minutes. The tissue was then incubated in this buffer containing 100-200 µCi of ³H-inositol at 37°C for 1 hour. The tissue was then washed twice and incubated for another 30 minutes in Krebs-Hepes buffer (containing 10 mM Li⁺) at 37°C with fresh buffer change after 15 minutes. Portions of the tissue mass (approximately 10 mg per assay tube) were then placed in Li⁺ buffer with protease inhibitors, (40 µg/ml bacitracin,4 µg/ml leupeptin, 4 µg/ml chymostatin, 20 µg/ml thiorphan), 0.1% BSA, and then 0.1-1000 nM peptide was added in 25 µl in a final volume of 250 µl. […] After 60 minutes at room temperature, the phosphatidylinositol turnover was terminated by the addition of 940 µl chloroform:methanol (1:2), followed by 310 µl chloroform, followed by 310 µl water. Each tube was then vortexed for 5 seconds and then centrifuged at 2500 x g for 8 minutes to separate the phases. 900 µl of the top (aqueous) phase was then mixed with 2.1 ml water and loaded onto a 0.5 ml Biorad AG-1X8 (formate) ion exchange column. 50 µl of the bottom phase (chloroform) was withdrawn from each tube and placed in a counting vial, dried, and counted in scintillation fluid. The material on the columns was washed in order with: 1) 10 ml of water 2) 5 ml of 5 mM disodium tetraborate/60 mM sodium formate 3) 10 ml of 1 M ammonium formate in 0.1 M formic acid. The final (third) wash was collected and one ml was mixed with 10 ml of Bio-Safe scintillant and counted. The ratio of these counts (total inositol phosphates) to the corresponding organic phase counts was then calculated for each sample. The ratios in the presence of test compound and/or standards were then compared to the ratios for control tubes (i.e., no stimulating agonist). Dose-response lines were constructed and the abilities of test compounds to stimulate or to inhibit GRP induced phosphatidylinositol turnover were determined by graphical analysis or with the aid of a computer program and are illustrated in Figures 3 and 4.
The abscissa (x-axis) logarithmically indicates the concentration of peptide present. The ordinate (y-axis) indicates the observed PI turnover as a percentage of control. Values are mean ± standard error of triplicate determinations; where not shown, the errors are ≤the size of the data points.
Figure 4 illustrates the ability of (Phe₁₃[CH₂s]Leu₁₄)bombesin to antagonize GRP-induced PI turnover in murine pancreas (Example 2). The abscissa (x-axis) logarithmically indicates the concentration of peptide present. The ordinate (y-axis) indicates the observed PI turnover as a percentage of control. […] Data are the mean ± standard error of triplicate determinations; where not shown, the errors are ≤ the size of the data points.

The mark [3] stands for this setting: Kd (nM), receptor affinity, competition for iodinated GRP binding, murine pancreatic membranes.
[4] abbreviates: LIGAND analysis, 0.1 nM iodinated GRP, triplicate, murine pancreatic membranes (Figure 2), read-out: Kd.

These results are taken from patent publication EP0434979B1, “Peptide derivatives useful as antagonists of bombesin and gastrin-releasing peptide” (MERRELL DOW PHARMACEUTICALS INC., priority 1989, dated 1991).

Like-named read-outs stand apart in the source and are kept apart here. Where a SMILES comes first, the peptide text is derived from it. [ ]: non-standard residue; d: D form. The star is where a group is joined. Pheψ(CH2S)LeuNH2 = CC(C)C[C@H](SC[C@H](Cc1ccccc1)N*)C(N)=O; pGlu = O=C1CC[C@@H](C(=O)O)N1

T1 sequence (P21729 whole entry): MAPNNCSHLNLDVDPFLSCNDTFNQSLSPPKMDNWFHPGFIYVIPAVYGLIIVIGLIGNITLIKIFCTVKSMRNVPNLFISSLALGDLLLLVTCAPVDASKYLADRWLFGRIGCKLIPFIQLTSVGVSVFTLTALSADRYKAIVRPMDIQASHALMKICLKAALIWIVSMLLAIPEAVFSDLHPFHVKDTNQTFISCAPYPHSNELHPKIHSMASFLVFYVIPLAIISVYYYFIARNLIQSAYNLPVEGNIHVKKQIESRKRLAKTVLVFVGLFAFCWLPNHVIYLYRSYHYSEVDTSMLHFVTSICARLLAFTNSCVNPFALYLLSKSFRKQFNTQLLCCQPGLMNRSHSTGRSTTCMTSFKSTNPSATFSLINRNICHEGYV

`CC(C)C[C@@H](C(N)=O)[S+]([O-])C[C@H](Cc1ccccc1)NC(=O)[C@H](Cc1c[nH]cn1)NC(=O)CNC(=O)[C@@H](NC(=O)[C@H](C)NC(=O)[C@H](Cc1c[nH]c2ccccc12)NC(=O)[C@H](CCC(N)=O)NC(=O)[C@@H]1CCC(=O)N1)C(C)C` (single isomer, unassigned) [pQ Q W A V G H FΨ[CH₂S(O)]^IIL#] had a Kd at bombesin/GRP receptor [1] (setting [3]) of 1 nM.

As for `CC(C)C[C@@H](C(N)=O)[S+]([O-])C[C@H](Cc1ccccc1)NC(=O)[C@H](Cc1c[nH]cn1)NC(=O)CNC(=O)[C@@H](NC(=O)[C@H](C)NC(=O)[C@H](Cc1c[nH]c2ccccc12)NC(=O)[C@H](CCC(N)=O)NC(=O)[C@@H]1CCC(=O)N1)C(C)C` (single isomer, unassigned) [pQ Q W A V G H FΨ[CH₂S(O)]^IL#], at bombesin/GRP receptor [1] (setting [3]), the Kd was found to be 2 nM. In the case of `CC(C)C[C@H](NC(=O)[C@H](Cc1ccccc1)NC(=O)[C@H](Cc1c[nH]cn1)NC(=O)CNC(=O)[C@@H](NC(=O)[C@H](C)NC(=O)[C@H](Cc1c[nH]c2ccccc12)NC(=O)[C@H](CCC(N)=O)NC(=O)[C@H](CC(N)=O)NC(=O)CNC(=O)[C@H](CC(C)C)NC(=O)[C@H](CCCNC(=N)N)NC(=O)[C@H](CCC(N)=O)NC(=O)[C@@H]1CCC(=O)N1)C(C)C)C(N)=O` [(Phe₁₃Leu₁₄) bombesin, reference compound] ([pGlu]QRLGNQWAVGHFL-NH2), at bombesin/GRP receptor [1] (setting [4]), the Kd amounted to 0.1 nM. Regarding `CC(=O)N[C@H](Cc1ccccc1)C(=O)N[C@@H](CCC(N)=O)C(=O)N[C@@H](Cc1c[nH]c2ccccc12)C(=O)N[C@@H](C)C(=O)N[C@H](C(=O)N[C@H](C)C(=O)N[C@@H](Cc1c[nH]cn1)C(=O)N[C@H](CS[C@@H](CC(C)C)C(N)=O)Cc1ccccc1)C(C)C` [Acf Q W A V a H FΨ[CH₂S]L#, Ac-D-Phe-Gln-Trp-Ala-Val-D-Ala-His-PheΨ[CH₂S]Leu-NH₂] (Ac-[dF]QWAV[dA]H-{Pheψ(CH2S)LeuNH2}), on bombesin/GRP receptor [2], the “PI Turnover Antag.” value was “+” and the “PI Turnover Agonist” value is listed as “-”.

Regarding `CC(C)C[C@H](NC(=O)[C@H](CCCNC(=N)N)NC(=O)[C@H](CCC(N)=O)NC(=O)[C@@H]1CCC(=O)N1)C(=O)NCC(=O)N[C@@H](CC(N)=O)C(=O)N[C@@H](CCC(N)=O)C(=O)N[C@@H](Cc1c[nH]c2ccccc12)C(=O)N[C@@H](C)C(=O)N[C@H](C(=O)NCC(=O)N[C@@H](Cc1c[nH]cn1)C(=O)N[C@H](CS[C@@H](CC(C)C)C(N)=O)Cc1ccccc1)C(C)C` [pQ Q R L G N Q W A V G H FΨ[CH₂S]L#] ([pGlu]QRLGNQWAVGH-{Pheψ(CH2S)LeuNH2}), at bombesin/GRP receptor [1] (setting [4]), the Kd amounted to 3 nM. On bombesin/GRP receptor [1] (receptor affinity, competition for iodinated GRP binding, murine pancreatic membranes, read-out: Kd), the Kd worked out at 3 nM. For the same molecule, the “stimulation of phosphatidylinositol (PI) turnover (agonist activity)” value at bombesin/GRP receptor [2] (PI turnover as percentage of control, dose-response, triplicate (Figure 3)) is listed as “no agonist activity”. On bombesin/GRP receptor [2], the “PI Turnover Antag.” value is on record as “+” and the “PI Turnover Agonist” value is “-”. Also, at bombesin/GRP receptor [2] (preincubation for 30 minutes with 1000 nM peptide, then 1-1000 nM GRP, murine pancreas (Figure 4)), the “antagonism of GRP-induced PI turnover” value is on record as “reduces the stimulation of PI turnover”.

Turning to `CCCC[C@H](SC[C@H](Cc1ccccc1)NC(=O)[C@H](Cc1c[nH]cn1)NC(=O)CNC(=O)[C@@H](NC(=O)[C@H](C)NC(=O)[C@H](Cc1c[nH]c2ccccc12)NC(=O)[C@H](CCC(N)=O)NC(=O)[C@@H]1CCC(=O)N1)C(C)C)C(N)=O` [pQ Q W A V G H FΨ [CH₂S]Z#, pGlu-Gln-Trp-Ala-Val-Gly- His-Phe Ψ(CH₂S]Nle-NH₂], binding at bombesin/GRP receptor [1] (setting [3]) was put at a Kd of 4 nM. For the molecule `CC(C)C[C@H](SC[C@H](Cc1ccccc1)NC(=O)[C@H](Cc1c[nH]cn1)NC(=O)CNC(=O)[C@@H](NC(=O)[C@H](C)NC(=O)[C@H](Cc1c[nH]c2ccccc12)NC(=O)[C@H](CCC(N)=O)NC(=O)[C@@H]1CCC(=O)N1)C(C)C)C(N)=O` [pQ Q W A V G H FΨCH₂S]L#], at bombesin/GRP receptor [1] (setting [3]), the Kd was determined as 3 nM.

For orientation: Kd means the free concentration of one partner at which half of the binding sites on the other are occupied at equilibrium, for simple one-to-one binding.
